Source: patent US20120190004A1, “METHODS AND COMPOSITIONS FOR THE CRYOPRESERVATION OF DUCKWEED” (Biolex Therapeutics, Inc., priority 2009, published 2012)

Tests used:
Assay in all cases: Cryopreservation success rate after dormancy induction in sugar-supplemented medium
IFN61-B2-101 line = type: in vivo, Lemna minor; settings: sugars at two concentrations: 90 mg/ml (1X) and 270 mg/ml (3X)
Method: (§1) Lemna minor duckweed plants were cultured on Schenk and Hildebrandt media with 20 mg/ml sucrose at an aerial temperature of between 21° C. and 30° C. and light levels ranging from 200 μM·M^−2·sec^−1 to 450 μM·M^−2·sec^−1 for 1 day up to 1 year. Three frond colonies (each frond colony comprised one or more daughter fronds attached to the mother frond) were aseptically transferred into a 2.0-mL cryovial containing a 900 μL solution of Schenk and Hildebrandt media, […] step. The frond colonies were incubated in this sugar solution for 21-30 days. Each 24-hour photoperiod was comprised of fluctuations in temperature and light levels. Specifically, the daytime hours consisted of culturing the duckweed frond colony at an aerial temperature of 10° C. with a light level of about 25 μM·M^−2·sec^−1 to about 50 μM·M^−2·sec^−1 for a duration of 3 hours, followed by an aerial temperature of 15° C. at a light level of about 25 μM·M^−2·sec^−1 to about 75 μM·M^−2·sec^−1 for a duration of 6 hours, and an aerial temperature of 10° C. with a light level of about 25 μM^−2·sec^−1 to about 50 μM·M^−2·sec^−1 for a duration of 3 hours. During the nighttime hours of the 24-hour photoperiod, the duckweed frond colonies were cultured at an aerial temperature of 4° C. in the absence of light for a duration of 12 hours.
(§2) The duckweed frond colonies were dehydrated in a laminar flow hood in 900 μL of a cryoprotective solution, comprising 1.92 M DMSO, […], 3.26 M glycerol, and 0.4 M sucrose at pH 5.8. The cryovials were incubated in this solution at 4° C. for 30 minutes to 2 hours in the absence of light. Following the incubation, the cryoprotective solution was removed and replaced with 900 μL of fresh cryoprotective solution.
(§3) The duckweed frond colonies were frozen in a slow rate freezer according to the following freezing protocol. The cryovials containing the duckweed frond colonies were held at 4° C. and the temperature was lowered to −4° C. at 1° C. per minute, to −40° C. at 25° C. per minute, and then raised to −12° C. at 10° C. per minute. The temperature was again lowered to −40° C. at 1° C. per minute, to −90° C. at 10° C. per minute, and then lowered to −150° C. at 10° C. per minute. Once frozen, the vials containing the frond colonies were transferred to the vapor phase of liquid nitrogen for storage.
(§4) After up to 17 months in storage, the frozen duckweed frond colonies were thawed and recovered as follows. The vials containing the frozen duckweed frond colonies were transferred from the liquid nitrogen storage tank to a laminar flow hood and were thawed at room temperature for approximately ten minutes. The cryoprotective solution was removed and replaced with 900 μL of Schenk and Hildebrandt medium, supplemented with 1.2 M sucrose, followed by a ten minute incubation at room temperature. The 1.2 M sucrose was subsequently diluted by a series of five dilutions whereby 450 μL of the 1.2 M sucrose solution was removed and replaced with 450 μL of Schenk and Hildebrandt medium supplemented with 20 mg/ml sucrose. Following the serial dilutions, the frond colonies were transferred to a petri dish with Schenk and Hildebrandt medium, supplemented with 10 mg/ml sucrose and 1% (weight/volume) agar. The duckweed frond colonies were cultured at an aerial temperature of between 21° C. and 30° C. with light levels ranging from about 20 μM·M^−2·sec^−1 to about 100 μM·M^−2·sec^−1 for 7-14 days prior to calculating the success rate of the cryopreservation procedure.
(§5) The cryopreservation success rate was calculated by the total number of visible daughter fronds (or daughter fronds with viable tissue) to survive the freezing process and successfully reproduce new daughter fronds as a percentage of the total number of visible daughter fronds that were frozen. Viability of tissue or of daughter fronds was assessed by the presence of green tissue and the ability of these fronds or frond tissues to reproduce and generate new daughter fronds. […]

Sp. polyrrhiza = type: in vivo, Spirodela polyrrhiza; settings: for Cryopreservation success rate: single sugars 90 mg/ml unless the label says 20 mg/ml, six sugar combo 15 mg/ml each; for Cryopreservation success, in words: summary of Tables 6 and 7
L. minor [1] = type: in vivo, Lemna minor; settings: sugars at two concentrations: 90 mg/ml (1X) and 270 mg/ml (3X)
BAP01-B2-230 line = type: in vivo, Lemna minor; settings: sugars at two concentrations: 90 mg/ml (1X) and 270 mg/ml (3X)
Method: (§6) Lemna minor duckweed plants were cultured on Schenk and Hildebrandt media with 20 mg/ml sucrose at an aerial temperature of between 21° C. and 30° C. and light levels ranging from […] for 1 day up to 1 year. Three frond colonies (each frond colony comprised one or more daughter fronds attached to the mother frond) were aseptically transferred into a 2.0-mL cryovial containing a 900 μL solution of Schenk and Hildebrandt media, supplemented with 15 mg/ml of each D-trehalose dihydrate, sucrose, D-sorbitol, D-raffinose pentahydrate, D-glucose, and D-mannitol for the dormancy-induction step. The frond colonies were incubated in this sugar solution for 21-30 days. Each 24-hour photoperiod was comprised of fluctuations in temperature and light levels. Specifically, the daytime hours consisted of culturing the duckweed frond colony at an aerial temperature of 10° C. with a light level of about 25 μM·M^−2·sec^−1 to about 50 μM·M^−2·sec^−1 for a duration of 3 hours, followed by an aerial temperature of 15° C. at a light level of about 25 μM·M^−2·sec^−1 to about 75 μM·M^−2·sec^−1 for a duration of 6 hours, and an aerial temperature of 10° C. with a light level of about 25 μM^−2·sec^−1 to about 50 μM·M^−2·sec^−1 for a duration of 3 hours. During the nighttime hours of the 24-hour photoperiod, the duckweed frond colonies were cultured at an aerial temperature of 4° C. in the absence of light for a duration of 12 hours.
as §2, §3, §4
(§7) The cryopreservation success rate was calculated by the total number of visible daughter fronds (or daughter fronds with viable tissue) to survive the freezing process and successfully reproduce new daughter fronds as a percentage of the total number of visible daughter fronds that were frozen. […]

L. minor [2] = type: in vivo, Lemna minor; settings: for Cryopreservation success rate: single sugars 90 mg/ml unless the label says 20 mg/ml, six sugar combo 15 mg/ml each; for Cryopreservation success, in words: summary of Tables 6 and 7
Method: as §6, §2, §3, §4, §7

L. sp. Branson = type: in vivo; settings: for Cryopreservation success, in words: summary of Tables 6 and 7
Method: as §1, §2, §3, §4, §5

L. yungensis = type: in vivo, Lemna yungensis; settings: for Cryopreservation success rate: single sugars 90 mg/ml unless the label says 20 mg/ml, six sugar combo 15 mg/ml each; for Cryopreservation success, number of surviving fronds: sugar 90 mg/ml; for Cryopreservation success, in words: summary of Tables 6 and 7
[3] = first set of experiments, single sugars 90 mg/ml unless the label says 20 mg/ml, six sugar combo 15 mg/ml each, in Schenk and Hildebrandt media during dormancy induction
[4] = second set of experiments, single sugars 90 mg/ml unless the label says 20 mg/ml, six sugar combo 15 mg/ml each

| Structure (SMILES) | Cryopreservation success rate (Sp. polyrrhiza; first set of experiments) | Cryopreservation success rate (Sp. polyrrhiza; second set of experiments) | Cryopreservation success rate (L. minor [2]; first set of experiments) | Cryopreservation success rate (L. minor [2]; second set of experiments) | Cryopreservation success, in words (L. minor [2]) | Cryopreservation success rate (L. sp. Branson; [3]) | Cryopreservation success rate (L. sp. Branson; [4]) | Cryopreservation success rate (L. yungensis; first set of experiments) [%] | Cryopreservation success rate (L. yungensis; second set of experiments) [%] | Cryopreservation success, in words (Sp. polyrrhiza) | Cryopreservation success, in words (L. sp. Branson) | Cryopreservation success, number of surviving fronds (L. yungensis; first set of experiments) [frond] | Cryopreservation success, number of surviving fronds (L. yungensis; second set of experiments) | Cryopreservation success, in words (L. yungensis) | other results |
| --- | --- | --- | --- | --- | --- | --- | --- | --- | --- | --- | --- | --- | --- | --- | --- |
| O=C[C@H](O)[C@@H](O)[C@H](O)[C@H](O)CO [Glucose, glucose] | 0% (0/4) | 0% (0/4) | 5.9% (1/17) | 53.9% (7/13) | lower cryopreservation success rates | 88.5% (23/26) | 53.3% (8/15) | 0 | 0 |  |  |  |  |  | Cryopreservation success rate (IFN61-B2-101 line; listed as Glucose 1X): 5.3%; Cryopreservation success rate (IFN61-B2-101 line; listed as Glucose 3X): 0%; Cryopreservation success rate (L. minor [1]; listed as Glucose 1X): 0% (0/12); Cryopreservation success rate (L. minor [1]; listed as Glucose 3X): 0% (0/16); Cryopreservation success rate (BAP01-B2-230 line; listed as Glucose 1X): 0% (0/14); Cryopreservation success rate (BAP01-B2-230 line; listed as Glucose 3X): 0% (0/13); Cryopreservation success rate (L. sp. Branson; sugars at two concentrations: 90 mg/ml (1X) and 270 mg/ml (3X), listed as Glucose 1X): 0% (0/11); Cryopreservation success rate (L. sp. Branson; sugars at two concentrations: 90 mg/ml (1X) and 270 mg/ml (3X), listed as Glucose 3X): 0% (0/15) |
| OC[C@@H](O)[C@@H](O)[C@H](O)[C@H](O)CO [Mannitol, mannitol] | 50% (4/8) | 57.1% (4/7) | 0% (0/8) | 0% (0/14) | ineffective | 33.3% (6/18) | 28.6% (4/14) |  |  | successfully cryopreserved | low relative to the other sugars that were tested | 1 | 2 fronds | successfully cryopreserved |  |
| OC[C@H]1O[C@H](OC[C@H]2O[C@H](O[C@]3(CO)O[C@H](CO)[C@@H](O)[C@@H]3O)[C@H](O)[C@@H](O)[C@@H]2O)[C@H](O)[C@@H](O)[C@H]1O [Raffinose, raffinose] | 0% (0/6) | 0% (0/12) | 100% (16/16) | 92.9% (13/14) | prefers | 100% (23/23) | 100% (17/17) | 0 | 0 |  |  |  |  |  | Cryopreservation success rate (IFN61-B2-101 line; listed as Raffinose 1X): 100%; Cryopreservation success rate (IFN61-B2-101 line; listed as Raffinose 3X): 26.7%; Cryopreservation success rate (L. minor [1]; listed as Raffinose 1X): 96% (24/25); Cryopreservation success rate (L. minor [1]; listed as Raffinose 3X): 0% (0/19); Cryopreservation success rate (BAP01-B2-230 line; listed as Raffinose 1X): 96.2% (25/26); Cryopreservation success rate (BAP01-B2-230 line; listed as Raffinose 3X): 0% (0/14); Cryopreservation success rate (L. sp. Branson; sugars at two concentrations: 90 mg/ml (1X) and 270 mg/ml (3X), listed as Raffinose 1X): 100% (20/20); Cryopreservation success rate (L. sp. Branson; sugars at two concentrations: 90 mg/ml (1X) and 270 mg/ml (3X), listed as Raffinose 3X): 0% (0/12) |
| OC[C@@H](O)[C@@H](O)[C@H](O)[C@@H](O)CO [Sorbitol, sorbitol] | 12.5% (1/8) | 25% (1/4) | 0% (0/13) | 0% (0/4) | ineffective | 27.3% (6/22) | 16.7% (2/12) |  |  | successfully cryopreserved | low relative to the other sugars that were tested | 1 | 1 frond | successfully cryopreserved |  |
| OC[C@H]1O[C@H](O[C@H]2O[C@H](CO)[C@@H](O)[C@H](O)[C@H]2O)[C@H](O)[C@@H](O)[C@@H]1O [Trehalose, trehalose] | 0% (0/4) | 0% (0/15) | 100% (17/17) | 85.7% (12/14) | prefers | 100% (20/20) | 100% (16/16) | 0 | 0 |  |  |  |  |  | Cryopreservation success rate (IFN61-B2-101 line; listed as Trehalose 1X): 93.8%; Cryopreservation success rate (IFN61-B2-101 line; listed as Trehalose 3X): 7.1%; Cryopreservation success rate (L. minor [1]; listed as Trehalose 1X): 100% (15/15); Cryopreservation success rate (L. minor [1]; listed as Trehalose 3X): 0% (0/12); Cryopreservation success rate (BAP01-B2-230 line; listed as Trehalose 1X): 85% (17/20); Cryopreservation success rate (BAP01-B2-230 line; listed as Trehalose 3X): 0% (0/12); Cryopreservation success rate (L. sp. Branson; sugars at two concentrations: 90 mg/ml (1X) and 270 mg/ml (3X), listed as Trehalose 1X): 100% (17/17); Cryopreservation success rate (L. sp. Branson; sugars at two concentrations: 90 mg/ml (1X) and 270 mg/ml (3X), listed as Trehalose 3X): 0% (0/17) |
